Experimental data reported in US7799821B2, “Therapeutic compounds” (Allergan, Inc., priority 2004, dated 2010).
pEC50: −log10 of the molar value. Blank lines part the entries; values can stand above or below the compound they belong to.

Key:
Format in all cases: cell-based
[1] = target: T1, hEP1 (Homo sapiens, UniProt P34995); assay: FLIPR calcium signal, hEP1; conditions: for pEC50: read-out: Other Receptors EC50 hEP1
T1 construct: expressed in transfected cells; host or cells: HEK-293(EBNA)
T1 sequence (P34995 1-402): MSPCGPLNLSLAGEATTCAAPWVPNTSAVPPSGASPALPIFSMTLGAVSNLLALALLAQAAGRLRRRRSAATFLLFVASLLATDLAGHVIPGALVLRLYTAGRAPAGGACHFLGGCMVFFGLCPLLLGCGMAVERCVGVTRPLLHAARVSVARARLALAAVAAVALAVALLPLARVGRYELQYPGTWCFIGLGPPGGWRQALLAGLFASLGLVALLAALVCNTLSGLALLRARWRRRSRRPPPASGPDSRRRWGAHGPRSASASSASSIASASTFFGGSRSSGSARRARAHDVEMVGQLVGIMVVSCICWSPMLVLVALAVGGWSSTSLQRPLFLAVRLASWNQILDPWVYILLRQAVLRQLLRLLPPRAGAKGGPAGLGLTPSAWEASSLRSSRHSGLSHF
Procedure: (§1) HEK-293(EBNA) cells, stably expressing one type or subtype of recombinant human prostaglandin receptors (prostaglandin receptors expressed: hDP/Gqs5; hEP1; hEP2/Gqs5; hEP3A/Gqi5; hEP4/Gqs5; hFP; hIP; hTP), were cultured in 100 mm culture dishes in high-glucose DMEM medium containing 10% fetal bovine serum, 2 mM 1-glutamine, 250 μg/ml geneticin (G418) and 200 μg/ml hygromycin B as selection markers, and 100 units/ml penicillin G, 100 μg/ml streptomycin and 0.25 μg/ml amphotericin B. • (b) Calcium Signal Studies on the FLIPR™
(§2) Cells were seeded at a density of 5×10^4 cells per well in Biocoat® Poly-D-lysine-coated black-wall, clear-bottom 96-well plates (Becton-Dickinson) and allowed to attach overnight in an incubator at 37° C. Cells were then washed two times with HBSS-HEPES buffer (Hanks Balanced Salt Solution without bicarbonate and phenol red, 20 mM HEPES, pH 7.4) using a Denley Cellwash plate washer (Labsystems). After 45 minutes of dye-loading in the dark, using the calcium-sensitive dye Fluo-4 AM at a final concentration of 2 μM, plates were washed four times with HBSS-HEPES buffer to remove excess dye leaving 100 μl in each well. Plates were re-equilibrated to 37° C. for a few minutes.
(§3) Cells were excited with an Argon laser at 488 nm, and emission was measured through a 510-570 nm bandwidth emission filter (FLIPR™, Molecular Devices, Sunnyvale, Calif.). Drug solution was added in a 50 μl volume to each well to give the desired final concentration. The peak increase in fluorescence intensity was recorded for each well. On each plate, four wells each served as negative (HBSS-HEPES buffer) and positive controls (standard agonists: BW245C (hDP); PGE2 (hEP1; hEP2/Gqs5; hEP3A/Gqi5; hEP4/Gqs5); PGF2α (hFP); carbacyclin (hIP); U-46619 (hTP), depending on receptor). The peak fluorescence change in each drug-containing well was then expressed relative to the controls.
(§4) Compounds were tested in a high-throughput (HTS) or concentration-response (CoRe) format. In the HTS format, forty-four compounds per plate were examined in duplicates at a concentration of 10^−5 M. To generate concentration-response curves, four compounds per plate were tested in duplicates in a concentration range between 10^−5 and 10^−11 M. The duplicate values were averaged. In either, HTS or CoRe format each compound was tested on at least 3 separate plates using cells from different passages to give an n≧3.

[2] = target: T2, hTP (Homo sapiens, UniProt P21731); assay: FLIPR calcium signal, hTP
T2 construct: expressed in transfected cells; host or cells: HEK-293(EBNA)
T2 sequence (P21731 1-343): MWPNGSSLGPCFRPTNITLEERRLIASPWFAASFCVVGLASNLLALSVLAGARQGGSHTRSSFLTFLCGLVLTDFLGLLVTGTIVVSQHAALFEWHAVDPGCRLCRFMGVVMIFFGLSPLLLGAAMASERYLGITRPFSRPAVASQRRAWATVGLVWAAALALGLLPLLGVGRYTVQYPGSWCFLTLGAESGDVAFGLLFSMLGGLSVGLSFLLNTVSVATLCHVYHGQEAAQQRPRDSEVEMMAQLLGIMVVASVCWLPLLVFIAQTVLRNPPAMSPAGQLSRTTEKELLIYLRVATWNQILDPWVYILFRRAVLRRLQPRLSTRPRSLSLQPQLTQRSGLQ
In short: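 HEK-293(EBNA) cells stably expressing the recombinant human receptor were loaded with 2 μM Fluo-4 AM for 45 min and read on FLIPR at 37° C in HBSS-HEPES pH 7.4. Peak fluorescence rise was expressed relative to buffer and standard agonist controls (BW245C, PGE2 or U-46619 by receptor); compounds were run 10^−5 to 10^−11 M in duplicate, n≧3.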

[3] = target: T3, hIP (Homo sapiens, UniProt P43119); assay: FLIPR calcium signal, hIP; conditions: for pEC50: read-out: Other Receptors EC50 hIP
T3 construct: expressed in transfected cells; host or cells: HEK-293(EBNA)
Procedure: as §1, §2, §3, §4

[4] = target: T4, hFP (Homo sapiens, UniProt P43088); assay: FLIPR calcium signal, hFP; conditions: Table 3, third part
T4 construct: expressed in transfected cells; host or cells: HEK-293(EBNA)
Procedure: as §1, §2, §3
Compounds were tested in a high-throughput (HTS) or concentration-response (CoRe) format. […]

T3 sequence (P43119 whole entry): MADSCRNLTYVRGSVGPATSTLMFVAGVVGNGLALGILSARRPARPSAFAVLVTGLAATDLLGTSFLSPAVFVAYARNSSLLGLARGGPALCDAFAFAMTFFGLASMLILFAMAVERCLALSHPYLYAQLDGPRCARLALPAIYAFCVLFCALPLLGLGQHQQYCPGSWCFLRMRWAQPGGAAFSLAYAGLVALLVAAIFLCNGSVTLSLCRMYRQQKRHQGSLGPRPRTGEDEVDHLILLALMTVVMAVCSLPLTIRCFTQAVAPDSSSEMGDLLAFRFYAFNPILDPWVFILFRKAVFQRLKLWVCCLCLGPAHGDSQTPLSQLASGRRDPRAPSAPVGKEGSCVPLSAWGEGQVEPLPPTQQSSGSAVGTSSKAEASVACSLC
T4 sequence (P43088 whole entry): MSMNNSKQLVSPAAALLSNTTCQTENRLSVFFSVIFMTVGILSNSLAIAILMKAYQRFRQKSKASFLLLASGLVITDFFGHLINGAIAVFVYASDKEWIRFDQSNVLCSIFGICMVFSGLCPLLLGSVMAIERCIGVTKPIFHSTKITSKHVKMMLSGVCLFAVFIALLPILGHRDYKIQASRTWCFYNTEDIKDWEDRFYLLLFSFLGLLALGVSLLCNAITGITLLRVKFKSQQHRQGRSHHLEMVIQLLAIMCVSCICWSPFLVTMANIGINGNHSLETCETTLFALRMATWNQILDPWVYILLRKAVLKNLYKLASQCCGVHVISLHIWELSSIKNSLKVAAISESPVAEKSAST

Structure (SMILES): CC(C)(C)c1ccc(N2C(=O)CC[C@@H]2CCCCCCC(=O)O)cc1
pEC50 [1]: < 5.00

Structure (SMILES): CC(C)(C)c1ccc(N2C(=O)CC[C@@H]2COCc2ccc(C(=O)O)s2)cc1
pEC50 ([2]; read-out: Other Receptors EC50 hTP): < 5.00 | pEC50 [1]: < 5.00

Structure (SMILES): CCCCCC(C)c1ccc([C@@H]2[C@@H](C/C=C\CCCC(=O)O)[C@H](C#N)C[C@H]2C)cc1 (some centres unmarked)
Ca2+ Signal-EC50 (nM) FP [4]: not active | Ca2+ Signal-EC50 (nM) IP ([3]; Table 3, third part): not active | Ca2+ Signal-EC50 (nM) TP ([2]; Table 3, third part): not active | Ca2+ Signal-EC50 (nM) EP1 ([1]; Table 3, third part): not active

Structure (SMILES): CCCCCCC(O)c1ccc(N2C(=O)CC[C@@H]2CCCc2ccc(C(=O)O)s2)cc1 (single isomer, unassigned) [drawing 155]
pEC50 [1]: 5.16

The next lines start with the values.

pEC50 [1]: 5.16
Structure (SMILES): CCCCCCC(O)c1ccc(N2C(=O)CC[C@@H]2CCCc2ccc(C(=O)O)s2)cc1 (single isomer, unassigned) [drawing 183]

pEC50 [3]: < 5.00
Structure (SMILES): CCCCCCC(O)c1ccc(N2C(=O)CC[C@@H]2CCCc2ccc(C(=O)O)s2)cc1 (single isomer, unassigned) [drawing 184]

pEC50 [3]: < 5.00
Structure (SMILES): CCCCCCC(O)c1ccc(N2C(=O)CC[C@@H]2CCCc2ccc(C(=O)O)s2)cc1 (single isomer, unassigned) [drawing 156]
